Tests used:
[1] = system: melanoma murine cell line B16 OVA; assay: Tumor growth of B16 OVA melanoma in mice immunized with ovalbumin plus adjuvants; format: in vivo; settings: ovalbumin 10 μg/mouse i.p. prime and boost; polyI:C 50 μg, rapamycin 100 μg, MPL 10 μg per mouse; B16 OVA 1×10^6 cells s.c. 4 weeks after secondary immunization
Method: By intraperitoneal injecting, 6-8 weeks aged mice were immunized using ovalbumin (10 μg/mouse) as antigen and PBS (200 μl, negative control), polyI:C (Invivogen) (50 μg/mouse), rapamycin (100 μg/mouse), MPL (10 μg/mouse), MPL (10 μg/mouse)+rapamycin (100 μg/mouse), polyI:C (50 μg/mouse)+rapamycin (100 μg/mouse) used as adjuvant to conduct primary immunization. After two weeks, the mice were boosted by the same program. 4 weeks after the secondary immunization, melanoma murine cell line B16 OVA expressing OVA was subcutaneous implanted into mice (1×10^6 cells/mouse), and the tumor growth was measured.

[2] = system: OVA-specific T cell responses and antibody responses; assay: Ovalbumin immunization of mice with adjuvants: OVA-specific T cell and antibody responses; format: in vivo
Method: 6-8 weeks aged mice were primarily immunized by the inventors using intraperitoneal injection method, wherein Ovalbumin (10 μg/mouse) was used as antigen and PBS (negative control), MPL (10 μg/mouse, positive control), rapamycin (100 μg/mouse), rapamycin (100 μg/mouse)+MPL (10 μg/mouse) as adjuvant respectively, and were immunized again with ovalbumin (10 μg/mouse, without adjuvant) at 3 weeks. […] After 48 hours, enzyme linked immunosorbent assay (ELISA) was used to determine the content of IFNγ in the supernatant.

[3] = blood 1 week after secondary immunization, single adjuvants vs negative control, combination vs MPL alone

Question: For polyI:C, which tumor growth [1] is on record?
Answer: grew slowly and was of relatively small volume

Question: monophosphoryl lipid A [MPL] was tested. Which “OVA-specific IgG1 antibody titers” value [2, 3] did it give?
Answer: significantly increase

Question: And the “OVA-specific IgG2b antibody titers” value [2, 3]?
Answer: significantly increase

Question: What about the “OVA-specific IgG2c antibody titers” value [2, 3] of the same substance?
Answer: significantly increase

Question: What about the “OVA-specific CD8+ T cell responses” value ([2]; mice i.p., ovalbumin 10 μg, MPL 10 μg, rapamycin 100 μg per mouse, IFNγ ELISA of splenic cells stimulated with OVA-1, 48 hours) of the same substance?
Answer: significantly increase

Question: And the “OVA-specific CD4+ (Th1) T cell responses” value ([2]; mice i.p., ovalbumin 10 μg, MPL 10 μg, rapamycin 100 μg per mouse, IFNγ ELISA of splenic cells stimulated with OVA-II, 48 hours)?
Answer: significantly increase

Reference: US20160279236A1, “USE OF RAPAMYCIN AS VACCINE ADJUVANT AND PREPARATION METHOD THEREFOR” (INSTITUT PASTEUR OF SHANGHAI, CHINESE ACADEMY OF SCIENCES, priority 2013, published 2016)
